Assay [1] addresses T1, Solute carrier family 15 member 1 (Homo sapiens) (UniProt P46059).
T1 sequence (whole entry): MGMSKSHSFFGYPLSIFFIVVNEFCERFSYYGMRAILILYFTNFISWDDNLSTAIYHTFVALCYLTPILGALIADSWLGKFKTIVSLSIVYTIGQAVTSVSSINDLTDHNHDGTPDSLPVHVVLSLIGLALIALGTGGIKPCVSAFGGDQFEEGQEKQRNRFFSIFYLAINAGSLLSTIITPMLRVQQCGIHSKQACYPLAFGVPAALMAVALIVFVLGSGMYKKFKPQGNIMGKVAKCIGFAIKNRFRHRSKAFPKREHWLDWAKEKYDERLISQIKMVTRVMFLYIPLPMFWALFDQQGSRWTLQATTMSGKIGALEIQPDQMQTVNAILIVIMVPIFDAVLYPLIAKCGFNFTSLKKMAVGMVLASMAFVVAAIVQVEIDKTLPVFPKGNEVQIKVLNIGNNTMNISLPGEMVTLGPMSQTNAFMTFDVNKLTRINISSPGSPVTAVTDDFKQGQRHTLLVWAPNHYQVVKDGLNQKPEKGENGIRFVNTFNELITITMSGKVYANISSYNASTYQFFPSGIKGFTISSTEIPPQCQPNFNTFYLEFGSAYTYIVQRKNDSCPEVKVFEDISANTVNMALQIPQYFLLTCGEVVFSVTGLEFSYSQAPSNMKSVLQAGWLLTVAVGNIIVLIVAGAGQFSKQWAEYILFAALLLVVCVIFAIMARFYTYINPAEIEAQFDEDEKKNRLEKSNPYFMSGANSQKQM
Briefly: (§1) Binding affinity to PEPT1 in human Caco2 cells assessed as inhibition of [14C]Gly-Sar apical uptake after 5 mins by liquid scintillation counting. Type of assay: cell-based. The settings on record: Caco-2.

For assay [2], the target named is T2, Solute carrier family 15 member 1 (Homo sapiens, UniProt P46059).
T2 sequence (P46059 whole entry): T1 sequence (whole entry)
The description is as §1. Type of assay: cell-based, Caco-2.

Non-standard residues stand in square brackets, D forms with d. Residues, ends and D or L forms follow the SMILES beside them. *: point of attachment. 1Nal = N[C@@H](Cc1cccc2ccccc12)C(=O)O; Chg = N[C@H](C(=O)O)C1CCCCC1; Nva = CCC[C@H](N)C(=O)O; Bz = O=C(c1ccccc1)*

For `C[C@H](NC(=O)[C@H](COC(=O)c1ccccc1)CC(=O)[C@@H](N)Cc1ccccc1)C(=O)O`, in assay [1], the inhibition result is “Dose-dependent effect”. Besides, the Ki in assay [2] was 324 µM.
The corresponding values for `CCC[C@H](NC(=O)[C@H](COC(=O)c1ccccc1)CC(=O)[C@@H](N)Cc1ccccc1)C(=O)O` are “Dose-dependent effect” and 251 µM.
As to `N[C@@H](Cc1ccccc1)C(=O)C[C@@H](COC(=O)c1ccccc1)C(=O)N[C@H](C(=O)O)C1CCCCC1`, in assay [1], the inhibition result was “Dose-dependent effect”.
On the same count and under the same terms, as for `N[C@@H](Cc1ccccc1)C(=O)N[C@@H](COC(=O)c1ccccc1)C(=O)N[C@@H](Cc1cccc2ccccc12)C(=O)O` (H-Phe-Ser(Bz)-[1Nal]-OH), the entry is “Dose-dependent effect”.
As for `N[C@@H](Cc1ccccc1)C(=O)N[C@@H](COC(=O)c1ccccc1)C(=O)N[C@H](C(=O)O)C1CCCCC1` (H-Phe-Ser(Bz)-[Chg]-OH), the inhibition entry in assay [1] was “Dose-dependent effect”.
On the same count and under the same terms, the value for `CCC[C@H](NC(=O)[C@H](COC(=O)c1ccccc1)NC(=O)[C@@H](N)Cc1ccccc1)C(=O)O` (H-Phe-Ser(Bz)-[Nva]-OH) was “Dose-dependent effect”.
Take `C[C@H](NC(=O)[C@H](CO)NC(=O)[C@@H](N)Cc1ccccc1)C(=O)O` (H-Phe-Ser-Ala-OH): the inhibition entry in assay [1] was “Dose-dependent effect”. In addition, in assay [2], the Ki is 257 µM.

A word on the Ki: it is a measure of affinity in units of concentration, obtained from inhibition or displacement.

The values above are taken from ChEMBL document CHEMBL1806491, “The tandem chain extension aldol reaction used for synthesis of ketomethylene tripeptidomimetics targeting hPEPT1” (Bioorg Med Chem Lett, 2011).
